Experimental data: patent US20220378732A1, “SmartCore Compositions and Methods” (NPI, LLC, priority 2020, published 2022)

Assays:
T2D mouse model = assay: serum LPC-fatty acid levels after 4 weeks of administration in T2D mouse model; type: in vivo, mice; conditions: for serum concentration of LPC-arachidonic acid (AA) / serum concentration of LPC-eicosapentaenoic acid (EPA) / serum concentration of α-linolenic acid (aLA): FIG. 5; for change in serum LPC-18:2 / change in serum LPC-DHA: T2D mouse model, 4 weeks of administration; for change in serum LPC-18:2: FIG. 3; for change in serum LPC-DHA: FIG. 4
Protocol: To validate the inventors' hypotheses on the biological activity of the lignan and methyl donor various animal experiments were performed using mice as test subjects. Diabetes (type 1 and type 2) was used as model disease for LPC deficiency. Type 2 (T2D) diabetic mice were 6-week-old BKS.Cg-Dock7m+/+Leprdb/J (db/db), leptin receptor deficient. Hyperglycemia was confirmed (BG>250 mg/dl). Upon confirmation, all animals were subjected to 4-week treatment as indicated below. Treatment groups were as follows: Control, MSM treatment alone, sesame seed oil treatment alone, and MSM+sesame seed oil treatment. For harvest, serum was collected for lipid panel and analyzed using standard clinical protocol and equipment. Tissues (brain, eyes, heart, liver, kidneys) for fatty acid analysis was frozen at −80° C., and liver sections preserved in formalin for histology. MSM was administered as 1% MSM solution in water: 15-20 ml water was given per ˜25 g mouse per day (6-8 g/kg dose for ˜25 g mouse; 3-5 g/kg dose for ˜40 g mouse). Sesamin was provided as 1.58 mg/mL sesamin in sesame seed oil with 0.12-0.15 mg/g sesamin in mouse food (T1D: 4.4 g food per mouse per day; T2D: 7-8 g food per mouse per day; 20-22 mg/kg dose for mouse (both models)). After 4 weeks of administration of the tested compounds in the T2D mouse model, LPC-18:2 and LPC-DHA were determined from plasma and exemplary results are shown in FIG. 3 and FIG. 4, respectively.

[1] = tested on: high-fat diet-induced dyslipidemia; conditions: Nutrients 2016, 8, 276; cited from earlier work
[2] = tested on: mice with high-fat diet-induced diabetes; conditions: Exp Physiol 100.11 (2015); cited from earlier work

Row | SMILES | serum concentration of LPC-arachidonic acid (AA) (T2D mouse model) | serum concentration of LPC-eicosapentaenoic acid (EPA) (T2D mouse model) | serum concentration of α-linolenic acid (aLA) (T2D mouse model) | change in serum LPC-18:2 (T2D mouse model) | change in serum LPC-DHA (T2D mouse model) | effect on high-fat diet-induced dyslipidemia and kidney injury [1] | effect on exercise capacity and skeletal muscle mitochondrial function [2]
1 | CS(C)(=O)=O [MSM, methylsulfonylmethane] | did not result in an increase | did not result in an increase | did not result in an increase | did not trigger a statistically relevant change | did not trigger a statistically relevant change | – | –
2 | c1cc2c(cc1[C@H]1OC[C@H]3[C@@H]1CO[C@@H]3c1ccc3c(c1)OCO3)OCO2 [sesamin] | did not result in an increase | did not result in an increase | did not result in an increase | did not trigger a statistically relevant change | did not trigger a statistically relevant change | ameliorating high-fat diet-induced dyslipidemia and kidney injury | prevent decline in exercise capacity and impairment of skeletal muscle mitochondrial function
